For this assay, the target named is Btk (Homo sapiens (Human), UniProt Q06187). Nature of the assay: Btk in vitro inhibitory activity (one of Method A TR-FRET, Method B mobility shift, Method C radiometric filter binding). The class given is biochemical. As to conditions: determined using one of the methods outlined in Example 36a, 36b and 36c. The method, then: Btk kinase activity is determined using a time-resolved fluorescence resonance energy transfer (TR-FRET) methodology. Measurements are performed in a reaction volume of 50 μL using 96-well assay plates. […] The reaction is quenched by the addition of 1.2 equivalents of EDTA (relative to divalent cation) in 25 μL of 1× Lance buffer (Perkin-Elmer). […] The TR-FRET signal is measured on a multimode plate reader with an excitation wavelength (λEx) of 330 nm and detection wavelengths (λEm) of 615 and 665 nm. Activity is determined by the ratio of the fluorescence at 665 nm to that at 615 nm. For each compound, enzyme activity is measured at various concentrations of compound. Negative control reactions are performed in the absence of inhibitor in replicates of six, and two no-enzyme controls are used to determine baseline fluorescence levels Inhibition constants, Ki(app), ware obtained using the program BatchKi (Kuzmic et al. (2000), Anal. Biochem. 286:45-50). IC50s are obtained according to the equation: IC50={Ki(app)/(1+[ATP]/Km^ATP)}+[E]total/2;
Btk, sequence (Q06187 whole entry): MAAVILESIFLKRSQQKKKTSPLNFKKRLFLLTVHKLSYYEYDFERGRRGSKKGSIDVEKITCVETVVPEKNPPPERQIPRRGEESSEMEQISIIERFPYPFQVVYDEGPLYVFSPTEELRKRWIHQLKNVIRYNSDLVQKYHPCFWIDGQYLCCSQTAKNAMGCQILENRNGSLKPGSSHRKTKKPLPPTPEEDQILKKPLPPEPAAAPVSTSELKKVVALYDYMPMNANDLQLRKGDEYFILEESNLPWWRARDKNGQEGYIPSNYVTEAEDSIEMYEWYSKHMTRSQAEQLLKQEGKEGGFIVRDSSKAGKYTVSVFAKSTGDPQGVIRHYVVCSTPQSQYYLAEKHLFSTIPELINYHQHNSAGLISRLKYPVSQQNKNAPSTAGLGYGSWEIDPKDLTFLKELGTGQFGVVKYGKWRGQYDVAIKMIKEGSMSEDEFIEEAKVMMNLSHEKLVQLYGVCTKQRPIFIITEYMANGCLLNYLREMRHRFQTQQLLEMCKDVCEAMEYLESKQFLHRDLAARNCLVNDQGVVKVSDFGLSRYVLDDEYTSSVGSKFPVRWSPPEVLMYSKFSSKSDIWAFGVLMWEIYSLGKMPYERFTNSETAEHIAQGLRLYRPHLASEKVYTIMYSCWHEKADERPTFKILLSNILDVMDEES
Kinase activity is measured in vitro using electrophoretic mobility shift assay. The kinase reactions are assembled in a total volume of 25 μL in 384 well plates. […] The reaction is incubated for one hour and is quenched by the addition of 45 μL of termination buffer (100 mM HEPES, pH7.5, 0.01% Triton X-100, 30 mM EDTA). The terminated reactions are analyzed using 12 channel LabChip® 3000 microfluidic detection instrument (Caliper Life Sciences). […] Change in the relative fluorescence intensity of the substrate and product peaks is the parameter measured, reflecting enzyme activity. In the presence of an inhibitor, the ratio between product and substrate is altered: the signal of the product decreases, while the signal of the substrate increases.
Activity in each sample is determined as the product to sum ratio (PSR):P/(S+P), where P is the peak height of the product peptide and S is the peak height of the substrate peptide. For each compound, enzyme activity is measured at various concentrations (12 concentrations of compound spaced by 3× dilution intervals). Negative control samples (0%-inhibition in the absence of inhibitor) and positive control samples (100%-inhibition, in the presence of 20 mM EDTA) are assembled in replicates of four and are used to calculate %-inhibition values for each inhibitor at each concentration. Percent inhibition (Pinh) is determined using following equation: Pinh=(PSR0%−PSRinh)/(PSR0%−PSR100%)*100, where PSRinh is the product sum ratio in the presence of inhibitor, PSR0% is the average product sum ration in the absence of inhibitor and PSR100% is the average product sum ratio in 100%-inhibition control samples;
The IC50 values of inhibitors are determined by 4 parameter sigmoidal dose-response model fitting of the inhibition curves (Pinh versus inhibitor concentration) using XLfit 4 software.
IC50 values and curve fits were obtained using Prism (GraphPad Software).
The degree of Btk inhibition was determined using one of the methods outlined in Example 36a, 36b and 36c.
A general note: TR-FRET usually uses a lanthanide donor and a delayed reading to cut background.

SMILES strings stand for the structures.

The record followed here is patent US9637487B2, “Purinone compounds as kinase inhibitors” (Pharmacyclics LLC, priority 2013, dated 2017).

For `CN(C)C/C=C/C(=O)N(C)c1cccc(-n2c(=O)n(-c3ccc(C(=O)Nc4ccccn4)cc3)c3c(N)ncnc32)c1` [Compound 6, (E)-4-(6-amino-9-(3-(4-(dimethylamino)-N-methylbut-2-enamido)phenyl)-8-oxo-8,9-dihydro-7H-purin-7-yl)-N-(pyridin-2-yl)benzamide], the IC50 is less than 100 nM.

`Cc1ccnc(NC(=O)c2ccc(-n3c(=O)n(-c4cccc(N(C)C(=O)/C=C/CN(C)C)c4)c4ncnc(N)c43)cc2)c1` [Compound 7, (E)-4-(6-amino-9-(3-(4-(dimethylamino)-N-methylbut-2-enamido)phenyl)-8-oxo-8,9-dihydro-7H-purin-7-yl)-N-(4-methylpyridin-2-yl)benzamide]: the IC50 was less than 100 nM.

Consider `CCc1ccnc(NC(=O)c2ccc(-n3c(=O)n(-c4cccc(N(C)C(=O)/C=C/CN(C)C)c4)c4ncnc(N)c43)cc2)c1` [Compound 8, (E)-4-(6-amino-9-(3-(4-(dimethylamino)-N-methylbut-2-enamido)phenyl)-8-oxo-8,9-dihydro-7H-purin-7-yl)-N-(4-ethylpyridin-2-yl)benzamide], for which the IC50 is less than 100 nM.

Consider `CCCc1ccnc(NC(=O)c2ccc(-n3c(=O)n(-c4cccc(N(C)C(=O)/C=C/CN(C)C)c4)c4ncnc(N)c43)cc2)c1` [Compound 9, (E)-4-(6-amino-9-(3-(4-(dimethylamino)-N-methylbut-2-enamido)phenyl)-8-oxo-8,9-dihydro-7H-purin-7-yl)-N-(4-propylpyridin-2-yl)benzamide], for which the IC50 was less than 100 nM.

With `CN(C)C/C=C/C(=O)N(C)c1cccc(-n2c(=O)n(-c3ccc(C(=O)Nc4cc(C(F)(F)F)ccn4)cc3)c3c(N)ncnc32)c1` [Compound 10, (E)-4-(6-amino-9-(3-(4-(dimethylamino)-N-methylbut-2-enamido)phenyl)-8-oxo-8,9-dihydro-7H-purin-7-yl)-N-(4-(trifluoromethyl)pyridin-2-yl)benzamide], the IC50 is less than 100 nM.

With `CN(C)C/C=C/C(=O)N(C)c1cccc(-n2c(=O)n(-c3ccc(C(=O)Nc4cccc(C(F)(F)F)c4)cc3)c3c(N)ncnc32)c1` [Compound 11, (E)-4-(6-amino-9-(3-(4-(dimethylamino)-N-methylbut-2-enamido)phenyl)-8-oxo-8,9-dihydro-7H-purin-7-yl)-N-(3-(trifluoromethyl)phenyl)benzamide], the IC50 is less than 100 nM.

Regarding `CN(C)C/C=C/C(=O)N(C)c1cccc(-n2c(=O)n(-c3ccc(C(=O)Nc4cccc(-c5ncccn5)c4)cc3)c3c(N)ncnc32)c1` [Compound 12, (E)-4-(6-amino-9-(3-(4-(dimethylamino)-N-methylbut-2-enamido)phenyl)-8-oxo-8,9-dihydro-7H-purin-7-yl)-N-(3-(pyrimidin-2-yl)phenyl)benzamide], the IC50 was less than 100 nM.

`CN(C)C/C=C/C(=O)N(C)c1cccc(-n2c(=O)n(-c3ccc(C(=O)Nc4ncccc4F)cc3)c3c(N)ncnc32)c1` [Compound 13, (E)-4-(6-amino-9-(3-(4-(dimethylamino)-N-methylbut-2-enamido)phenyl)-8-oxo-8,9-dihydro-7H-purin-7-yl)-N-(3-fluoropyridin-2-yl)benzamide]: the IC50 fell in the range of 100 to 1000 nM.

With `CN(C)C/C=C/C(=O)N(C)c1cccc(-n2c(=O)n(-c3ccc(C(=O)Nc4ccc(F)cn4)cc3)c3c(N)ncnc32)c1` [Compound 14, (E)-4-(6-amino-9-(3-(4-(dimethylamino)-N-methylbut-2-enamido)phenyl)-8-oxo-8,9-dihydro-7H-purin-7-yl)-N-(5-fluoropyridin-2-yl)benzamide], the IC50 is less than 100 nM.

Regarding `CN(C)C/C=C/C(=O)N(C)c1cccc(-n2c(=O)n(-c3ccc(C(=O)Nc4cncc(F)c4)cc3)c3c(N)ncnc32)c1` [Compound 15, (E)-4-(6-amino-9-(3-(4-(dimethylamino)-N-methylbut-2-enamido)phenyl)-8-oxo-8,9-dihydro-7H-purin-7-yl)-N-(5-fluoropyridin-3-yl)benzamide], the IC50 lay within 100 to 1000 nM.

Take `Cc1cc(NC(=O)c2ccc(-n3c(=O)n(-c4cccc(N(C)C(=O)/C=C/CN(C)C)c4)c4ncnc(N)c43)cc2)ncc1F` [Compound 16, (E)-4-(6-amino-9-(3-(4-(dimethylamino)-N-methylbut-2-enamido)phenyl)-8-oxo-8,9-dihydro-7H-purin-7-yl)-N-(5-fluoro-4-methylpyridin-2-yl)benzamide]: the IC50 was less than 100 nM.

For `CN(C)C/C=C/C(=O)N(C)c1cccc(-n2c(=O)n(-c3ccc(C(=O)Nc4ccc(Cl)cn4)cc3)c3c(N)ncnc32)c1` [Compound 17, (E)-4-(6-amino-9-(3-(4-(dimethylamino)-N-methylbut-2-enamido)phenyl)-8-oxo-8,9-dihydro-7H-purin-7-yl)-N-(5-chloropyridin-2-yl)benzamide], the IC50 was less than 100 nM.

Regarding `CN(C)C/C=C/C(=O)N(C)c1cccc(-n2c(=O)n(-c3ccc(C(=O)Nc4nccs4)cc3)c3c(N)ncnc32)c1` [Compound 18, (E)-4-(6-amino-9-(3-(4-(dimethylamino)-N-methylbut-2-enamido)phenyl)-8-oxo-8,9-dihydro-7H-purin-7-yl)-N-(thiazol-2-yl)benzamide], the IC50 is less than 100 nM.

For `Cc1cnc(NC(=O)c2ccc(-n3c(=O)n(-c4cccc(N(C)C(=O)/C=C/CN(C)C)c4)c4ncnc(N)c43)cc2)s1` [Compound 19, (E)-4-(6-amino-9-(3-(4-(dimethylamino)-N-methylbut-2-enamido)phenyl)-8-oxo-8,9-dihydro-7H-purin-7-yl)-N-(5-methylthiazol-2-yl)benzamide], the IC50 is less than 100 nM.

Turning to `Cc1csc(NC(=O)c2ccc(-n3c(=O)n(-c4cccc(N(C)C(=O)/C=C/CN(C)C)c4)c4ncnc(N)c43)cc2)n1` [Compound 20, (E)-4-(6-amino-9-(3-(4-(dimethylamino)-N-methylbut-2-enamido)phenyl)-8-oxo-8,9-dihydro-7H-purin-7-yl)-N-(4-methylthiazol-2-yl)benzamide], the IC50 is less than 100 nM.

`Cc1nc(NC(=O)c2ccc(-n3c(=O)n(-c4cccc(N(C)C(=O)/C=C/CN(C)C)c4)c4ncnc(N)c43)cc2)sc1C` [Compound 21, (E)-4-(6-amino-9-(3-(4-(dimethylamino)-N-methylbut-2-enamido)phenyl)-8-oxo-8,9-dihydro-7H-purin-7-yl)-N-(4,5-dimethylthiazol-2-yl)benzamide]: the IC50 was less than 100 nM.

As to `CN(C)C/C=C/C(=O)N(C)c1cccc(-n2c(=O)n(-c3ccc(C(=O)Nc4nc5c(s4)CCCC5)cc3)c3c(N)ncnc32)c1` [Compound 22, (E)-4-(6-amino-9-(3-(4-(dimethylamino)-N-methylbut-2-enamido)phenyl)-8-oxo-8,9-dihydro-7H-purin-7-yl)-N-(4,5,6,7-tetrahydrobenzo[d]thiazol-2-yl)benzamide], the IC50 is less than 100 nM.

For the compound `CN(C)C/C=C/C(=O)N(C)c1cccc(-n2c(=O)n(-c3ccc(C(=O)Nc4nc5ccccc5s4)cc3)c3c(N)ncnc32)c1` [Compound 23, (E)-4-(6-amino-9-(3-(4-(dimethylamino)-N-methylbut-2-enamido)phenyl)-8-oxo-8,9-dihydro-7H-purin-7-yl)-N-(benzo[d]thiazol-2-yl)benzamide], the IC50 is less than 100 nM.

As to `Cc1nnc(NC(=O)c2ccc(-n3c(=O)n(-c4cccc(N(C)C(=O)/C=C/CN(C)C)c4)c4ncnc(N)c43)cc2)s1` [Compound 24, (E)-4-(6-amino-9-(3-(4-(dimethylamino)-N-methylbut-2-enamido)phenyl)-8-oxo-8,9-dihydro-7H-purin-7-yl)-N-(5-methyl-1,3,4-thiadiazol-2-yl)benzamide], the IC50 lay within 1000 to 10000 nM.

For the compound `Cc1cc(NC(=O)c2ccc(-n3c(=O)n(-c4cccc(N(C)C(=O)/C=C/CN(C)C)c4)c4ncnc(N)c43)cc2)sn1` [Compound 25, (E)-4-(6-amino-9-(3-(4-(dimethylamino)-N-methylbut-2-enamido)phenyl)-8-oxo-8,9-dihydro-7H-purin-7-yl)-N-(3-methylisothiazol-5-yl)benzamide], the IC50 was in the range of 100 to 1000 nM.

`CN(C)C/C=C/C(=O)N(C)c1cccc(-n2c(=O)n(-c3ccc(C(=O)c4ccccc4)cc3)c3c(N)ncnc32)c1` [Compound 26, (E)-N-(3-(6-amino-7-(4-benzoylphenyl)-8-oxo-7H-purin-9(8H)-yl)phenyl)-4-(dimethylamino)-N-methylbut-2-enamide]: the IC50 is less than 100 nM.

By IC50 is commonly meant the point on the concentration scale where inhibition reaches its midpoint.
